The source of these data is article PMC9496321, “6-Furopyridine Hexamethylene Amiloride Is a Non-Selective P2X7 Receptor Antagonist” (Biomolecules, 2022).

A value given as a limit tells only on which side of the number the result lay.

The subject of experiment [1] is hP2X7-mediated IL-1β release. As to the kind of experiment: Whole blood IL-1β release assay. The class given is cell-based. The conditions noted are these: 30 μM compound, 6 mM ATP, LPS-primed human whole blood. The protocol:
Whole blood IL-1β release assays were conducted as described. Briefly, whole human blood was mixed with an equal volume of serum-free RPMI-1640 medium containing LPS (200 ng/mL), added to a flat-bottom 96-well plate and incubated (37 °C, 95% air/5% CO2, 105 min). Compounds (30 μM) or vehicle (DMSO) were added to respective wells and incubated (37 °C, 95% air/5% CO2, 15 min). […] Plates were centrifuged (700× g, 10 min) with the resulting supernatants collected and stored at −80 °C. hIL-1β concentrations were determined using a Human IL-1β ELISA (Thermo Fisher Scientific) according to the manufacturer’s instructions. Samples above the detection limit (7500 pg/mL) were set at 7500 pg/mL for statistical analysis.

Experiment [2] has as its target T1, P2X7 (Homo sapiens, UniProt Q99572).
T1 sequence (Q99572 1-595): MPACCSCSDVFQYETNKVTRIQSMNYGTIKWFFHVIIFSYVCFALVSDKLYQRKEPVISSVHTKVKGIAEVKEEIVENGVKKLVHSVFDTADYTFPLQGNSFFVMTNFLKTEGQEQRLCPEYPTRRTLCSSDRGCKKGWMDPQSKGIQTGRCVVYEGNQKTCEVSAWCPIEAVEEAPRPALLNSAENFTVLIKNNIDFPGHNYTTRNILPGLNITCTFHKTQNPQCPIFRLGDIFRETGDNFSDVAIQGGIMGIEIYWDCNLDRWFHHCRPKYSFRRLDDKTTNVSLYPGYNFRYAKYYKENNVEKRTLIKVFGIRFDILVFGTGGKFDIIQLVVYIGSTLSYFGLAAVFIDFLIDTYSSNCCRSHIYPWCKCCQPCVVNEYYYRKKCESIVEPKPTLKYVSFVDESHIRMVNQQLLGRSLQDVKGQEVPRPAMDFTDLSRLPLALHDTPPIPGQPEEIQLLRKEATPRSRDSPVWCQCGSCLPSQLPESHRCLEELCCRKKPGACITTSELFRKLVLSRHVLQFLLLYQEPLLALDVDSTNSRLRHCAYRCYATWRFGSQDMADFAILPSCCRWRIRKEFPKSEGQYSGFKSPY
As to the kind of experiment: ATP-induced YO-PRO-1 uptake into human T cells (PBMCs). Type of experiment: cell-based. More on the design: Human peripheral blood mononuclear cells (PBMCs) were pre-incubated with DMSO (vehicle) or 30 μM 6-FPHMA; endogenous in cells; host or cells: cryopreserved human PBMCs (CD3+, CD4+, CD8+ T cells), four donors. The conditions noted are these: 30 μM compound, 1 mM ATP. The protocol: ATP-mediated uptake assays were conducted as described with either ethidium bromide or YO-PRO-1 iodide. Briefly, RPMI8226, HEK-hP2X7, HEK-mP2X7, HEK-cP2X7 or cryopreserved human peripheral blood mononuclear cells (PBMCs) were washed thrice with LDM (300× g, 5 min), resuspended in LDM and 1 × 10^6 cells were added to individual tubes. Cells were pre-incubated in the absence of compound (37 °C, 5 min) or in the presence of compound or vehicle (DMSO) (37 °C, 15 min) as indicated. […] An equal volume of ice-cold Mg^2+ stop solution was added and cells centrifuged (300× g, 5 min). Cells were washed twice in LDM (300× g, 5 min), resuspended and data were collected with an LSR Fortessa X-20 flow cytometer. MFI of ethidium^+ or YO-PRO-1^2+ was determined using FlowJo.

Another experiment concerns the target T2, endogenous hP2X7 (Homo sapiens, UniProt Q99572).
T2 construct: endogenous in cells; host or cells: RPMI8226 cells
T2 sequence (Q99572 1-595): T1 sequence (Q99572 1-595)
Description: ATP-induced ethidium+ uptake in RPMI8226 multiple myeloma cells (flow cytometry). Type of experiment: cell-based. The conditions noted are these: any concentration up to 30 μM, 300 μM ATP, RPMI8226 cells.

Experiment [3] has as its target T3, hP2X7 (Homo sapiens, UniProt Q99572).
T3 construct: expressed in transfected cells; host or cells: HEK293 cells, stably transfected (HEK-hP2X7)
T3 sequence (Q99572 1-595): T1 sequence (Q99572 1-595)
As to the kind of experiment: ATP-induced ethidium+ uptake in stably transfected HEK-hP2X7 cells (flow cytometry). The conditions noted are these: any concentration up to 30 μM, 450 μM ATP, HEK-hP2X7 cells. The class given is cell-based.

Experiment [4] deals with T1, P2X7. The conditions noted are these: human leukaemic lymphocytes, cited from earlier work; for inhibition of ATP-induced Na+ fluxes: 40 μM compound.
Another experiment deals with human (h) P2X7. Further details: method as in PMID 9720806. The conditions noted are these: 10 μM compound, HEK-hP2X7 cells; cited from earlier work.
For a further experiment, the system named is mouse (m) P2X7. More on the design: method as in PMID 7514597. The conditions noted are these: 40 μM compound, Xenopus oocytes with mP2X7 mRNA; cited from earlier work.
The subject of another experiment is mP2X7. More on the design: method as in PMID 11181928. The conditions noted are these: cited from earlier work.
Experiment [5] has as its target T3, hP2X7. More on the design: method as in PMID 11181928. The conditions noted are these: 16 μM BzATP; cited from earlier work.
For experiment [6], the target named is T1, P2X7. Further details: endogenous in cells. The conditions noted are these: human leukemic B cells, cited from earlier work.
Experiment [7] concerns the target T1, P2X7. Description: Plate-based flow cytometric YO-PRO-1 dye uptake compound screen in RPMI8226 cells. The class given is cell-based. More on the design: endogenous in cells; host or cells: RPMI8226 cells. The conditions noted are these: 5 μM compound, 250 μM ATP; also previous studies. How it is done: RPMI8226 cells were washed thrice with low-divalent medium (LDM) (145 mM NaCl, 2 mM KCl, 0.2 mM CaCl2, 13 mM D-glucose and 10 mM HEPES, pH 7.5) and 1 × 10^5 cells were added to each well of a 96-well flat-bottomed plate. Amiloride derivatives, at 10 μM (final concentration 5 μM) or vehicle (DMSO) were added, and plates pre-incubated (37 °C, 15 min). […] Wells were washed twice with LDM (300× g, 5 min) and cells were resuspended in LDM. Data was acquired with an Attune NxT Flow Cytometer an Autosampler (Thermo Fisher Scientific). Mean fluorescent intensity (MFI) of YO-PRO-1^+ uptake was determined using FlowJo.
In general terms: In flow cytometry, cells or beads pass a laser one at a time.

For the molecule `Cc1nc(N=Nc2ccc(S(=O)(=O)O)cc2S(=O)(=O)O)c(COP(=O)(O)O)c(C=O)c1O` [PPADS, Pyridoxalphosphate-6-azophenyl-2′,4′-disulfonic acid], the “reduction of ATP-induced IL-1β compared to vehicle control” value (shortened to “reduction of ATP-induced IL-1β”) in experiment [1] is reported as “did not alter”. On P2X7 [2], the “reduction of ATP-induced YO-PRO-1 uptake into CD3+ T cells” value was 85 ± 9%, the “reduction of ATP-induced YO-PRO-1 uptake into CD4+ T cells” value turned out to be 85 ± 11% and the “reduction of ATP-induced YO-PRO-1 uptake into CD8+ T cells” value was 86 ± 7%.
On to `N=C(N)NC(=O)c1nc(-c2cc3cnccc3o2)c(N)nc1N` [6-FPA, 6-furopyridine-substituted amiloride], for which the “inhibition of hP2X7-mediated dye uptake” value on endogenous hP2X7 and on hP2X7 [3] was “did not inhibit” in each case.
Consider `NC(N)=NC(=O)c1nc(Cl)c(N2CCCCCC2)nc1N` [HMA, 5-(N,N-hexamethylene) amiloride], for which the “inhibition of ATP-induced Na+ fluxes” value on P2X7 [4] is on record as 95%. Also, in the experiment with human (h) P2X7, the “inhibition of BzATP-induced inward currents” value is reported as 30%. Also, the “inhibition of ATP- and BzATP-induced currents” value in the experiment with mouse (m) P2X7 is given as “partially inhibited”. Also, the “effect on mP2X7-mediated dye uptake at low BzATP” value in the experiment with mP2X7 (16 μM BzATP) is listed as “potentiated”. In addition, in the experiment with mP2X7 (HEK293 cells), the “potency of inhibition of BzATP-induced uptake, mP2X7 compared to hP2X7” value is on record as “reduced potency”. Also, on hP2X7 [5], the “potentiation of dye uptake at low BzATP, hP2X7” value is listed as “not observed”. In addition, the “inhibition of ATP-induced ethidium+ uptake” value at P2X7 [6] (20 μM compound) is reported as 50%. The “concentration required for complete inhibition of ATP-induced ethidium+ uptake” value on P2X7 [6] is greater than 100 µM.
For the molecule `O=C(NCC1(N2CCN(c3ccccc3)CC2)CCOCC1)c1cccnc1Sc1ccccc1` [JNJ-47965567], in experiment [1], the “reduction of ATP-induced IL-1β” value is reported as 98 ± 1%. For the same molecule, at P2X7 [2], the “reduction of ATP-induced YO-PRO-1 uptake into CD3+ T cells” value stood at 79 ± 14%, the “reduction of ATP-induced YO-PRO-1 uptake into CD4+ T cells” value came to 78 ± 15% and the “reduction of ATP-induced YO-PRO-1 uptake into CD8+ T cells” value is 80 ± 11%.
With `CCOc1ccc(Nc2ccc(/C(=C3C=C/C(=[N+](/CC)Cc4cccc(S(=O)(=O)[O-])c4)C=C/3C)c3ccc(N(CC)Cc4cccc(S(=O)(=O)O)c4)cc3C)cc2)cc1` [BBG, Brilliant Blue G], in experiment [1], the “reduction of ATP-induced IL-1β” value is “did not alter”. In addition, at P2X7 [2], the “reduction of ATP-induced YO-PRO-1 uptake into CD3+ T cells” value amounted to 90 ± 8%, the “reduction of ATP-induced YO-PRO-1 uptake into CD4+ T cells” value stood at 83 ± 17% and the “reduction of ATP-induced YO-PRO-1 uptake into CD8+ T cells” value worked out at 72 ± 22%.
Turning to `N=C(N)NC(=O)c1nc(Cl)c(N)nc1N` [Amiloride], the “inhibition of ATP-mediated Na+ fluxes” value at P2X7 [4] (1 mM compound) was 50%. Moreover, the “block of hP2X7 in screening assay” value on P2X7 [7] was “blocks hP2X7 relatively poorly”.
On to `CCN(c1nc(N)c(C(=O)N=C(N)N)nc1Cl)C(C)C` [EIPA, 5-(N-ethyl-N-isopropyl) amiloride], for which the “inhibition of ATP-induced Na+ fluxes” value at P2X7 [4] was 72%.
